Laboratory results reported in patent publication US20100204113A1, “USE OF STRESSCOPIN-RELATED PEPTIDE AS A THERAPEUTIC AGENT” (priority 2007, published 2010).
No end group written: not given here.

Tested on: drug-resistant Mycobacterium tuberculosis
Conditions: peptide 10 micrograms per ml, seven days

## HPGSRIVLSLDVPIGLLQILLEQARARAAREQATTNARILARV-NH2 [Stresscopin-related peptide]
  % inhibition: 0.0%
